Laboratory results as given in the NIST ThermoML archive (doi:10.1021/je100832h).

Experiments:
[1] = Liquid; for mass density: 101.32 kPa, Vibrating tube method
[2] = xn = mol fraction of the nth substance listed; details: 101.32 kPa, Liquid, Vibrating tube method
[3] = excess molar enthalpy (molar enthalpy of mixing); xn = mol fraction of the nth substance listed; details: 291.15 K, 101 kPa, Liquid, Calvet calorimetry

CCCCC [pentane]
[1]
Details	mass density [kg/m3]	vapor or sublimation pressure [kPa]
291.15 K	628.22	–
298.15 K	621.35	–
309.3 K	–	101.32

CCCCC [pentane] + CCOC(C)=O
mass density [kg/m3], [2]
Details	291.15 K	298.15 K
x2 = 0	628.22	621.35
x2 = 0.0126	630.77	–
x2 = 0.026	–	626.34
x2 = 0.0577	640.44	–
x2 = 0.0607	–	633.6
x2 = 0.0897	–	639.94
x2 = 0.0922	648.09	–
x2 = 0.1609	–	655.94
x2 = 0.1813	668.69	–
x2 = 0.2315	–	672.51
x2 = 0.2507	685.25	–
x2 = 0.3028	–	690.12
x2 = 0.3232	703.25	–
x2 = 0.3576	–	703.99
x2 = 0.3916	721.01	–
x2 = 0.4301	–	722.92
x2 = 0.4566	738.23	–
x2 = 0.4703	–	733.71
x2 = 0.5276	–	749.44
x2 = 0.5296	758.09	–
x2 = 0.5916	775.48	–
x2 = 0.6517	792.81	–
x2 = 0.6553	–	785.76
x2 = 0.7126	–	802.69
x2 = 0.7164	812.13	–
x2 = 0.7725	–	820.79
x2 = 0.7788	831.21	–
x2 = 0.8245	–	836.93
x2 = 0.8582	856.32	–
x2 = 0.8825	–	855.3
x2 = 0.8961	868.57	–
x2 = 0.9342	–	872.31
x2 = 0.9693	892.55	–
x2 = 0.9896	–	890.79

[3]
Details	excess molar enthalpy [kcal/mol]
x2 = 0.0628	0.0777
x2 = 0.1353	0.139
x2 = 0.2024	0.194
x2 = 0.2623	0.232
x2 = 0.3345	0.274
x2 = 0.4047	0.295
x2 = 0.4549	0.305
x2 = 0.514	0.307
x2 = 0.5664	0.3
x2 = 0.6434	0.283
x2 = 0.7049	0.256
x2 = 0.7712	0.221
x2 = 0.8427	0.175
x2 = 0.9116	0.118
x2 = 0.9483	0.065
